Series [1] has as its system rat. The following applies: Prenatal developmental toxicity study; wistar; Oral; Gavage/Intubation; dose end: 5 GD; group: maternal; reproductive / reproductive performance / implantations / implantations.
In series [2] the test system is rat. The following applies: Multigenerational reproductive toxicity study, other, Oral, Feed, dose end: 2 generation.
The subject of series [3] is dog. Conditions: Subchronic oral toxicity in nonrodent, beagle, Feed, dose end: 90 day, group: systemic, systemic / clinical chemistry / cortisol / cortisol + systemic / organ weight / liver / relative to body weight + systemic / pathology ….
The subject of series [4] is mouse. The following applies: Subchronic oral toxicity in rodents, cd1, Feed, dose end: 90 day, group: systemic, systemic / clinical chemistry / hepatic mixed function oxidase (mfo) assay / hepatic mixed function oxidase (mfo) assay + systemic / in life….
Series [5] relates to rat. The following applies: Combined chronic toxicity/carcinogenicity, other, Oral, Feed, dose end: 24 month, group: systemic.
The test system of series [6] is rat. The following applies: Subchronic oral toxicity in rodents, sprague dawley, Feed, dose end: 90 day, group: systemic.
The subject of series [7] is mouse. Conditions: Carcinogenicity; b6c3f1; Oral; Feed; dose end: 78 week; group: systemic; systemic / in life observation / body weight / body weight gain.
Series [8] relates to dog. The following applies: Chronic toxicity, beagle, Oral, Feed, dose end: 52 week, group: systemic.
The subject of series [9] is rat. Conditions: Developmental neurotoxicity study; sprague dawley; Oral; Gavage/Intubation; dose end: 70 PND; group: cannot be grouped; reproductive / reproductive performance / gestational length / gestational length + systemic / in life observation / body weight / body ….
Series [10] has as its system rat. Conditions: Developmental neurotoxicity study; sprague dawley; Oral; Water; dose end: 42 PND; group: cannot be grouped; developmental / developmental landmark / eye opening / eye opening + systemic / in life observation / body weight / offspring (pup) weight.
Series [11] has as its system rat. Conditions: Developmental neurotoxicity study; fischer; Oral; Water; dose end: 90 PND; group: cannot be grouped; developmental / developmental landmark / incisor eruption / incisor eruption + systemic / in life observation / body weight / offspring (pup….
For series [12], the system named is rat. The following applies: Combined chronic toxicity/carcinogenicity; sprague dawley; Oral; Feed; dose end: 104 week; group: systemic; systemic / in life observation / body weight / body weight gain + systemic / pathology microscopic / kidney / concretion + systemic / ….
Series [13] concerns rat. The following applies: Multigenerational reproductive toxicity study, sprague dawley, Oral, Feed, dose end: 2 generation.
The test system of another series is rabbit. The following applies: Prenatal developmental toxicity study, new zealand white, Oral, Gavage/Intubation, dose end: 19 GD, group: maternal.
The test system of series [14] is dog. The following applies: Chronic toxicity, beagle, Oral, Feed, dose end: 106 week, group: systemic.
Where [15] appears, read: group: offspring, developmental / offspring survival late / viability index / viability index + systemic / in life observation / body weight / offspring (pup….
Where [16] appears, read: group: parental, systemic / pathology microscopic / liver / hypertrophy + systemic / pathology microscopic / liver / vacuolization.
Where [17] appears, read: group: reproductive, reproductive / offspring survival early / dead fetuses / dead fetuses.
Where [18] appears, read: systemic / pathology microscopic / liver / hypertrophy + systemic / pathology microscopic / liver / vacuolization + systemic / clinical ….
The mark [19] stands for this setting: systemic / pathology microscopic / thyroid gland / hypertrophy.
The mark [20] stands for this setting: systemic / pathology microscopic / thyroid gland / hypertrophy + systemic / clinical chemistry / alanine aminotransferase (alt/sgpt) / ….
The mark [21] stands for this setting: systemic / clinical chemistry / albumin / albumin + systemic / clinical chemistry / alkaline phosphatase (alp/alk) / alkaline phosphatase (….
[22] abbreviates: systemic / hematology / hematocrit (hct) / hematocrit (hct) + systemic / hematology / hemoglobin (hgb) / hemoglobin (hgb).
The mark [23] stands for this setting: group: offspring, systemic / in life observation / body weight / offspring (pup) weight.
[24] abbreviates: group: parental, systemic / in life observation / body weight / body weight + systemic / in life observation / body weight / body weight gain + systemic / in….
Setting [25] is: reproductive / reproductive performance / resorptions / resorptions + systemic / in life observation / food consumption / food consumption.
Where [26] appears, read: systemic / pathology microscopic / bone marrow / atrophy + systemic / pathology microscopic / kidney / congestion + systemic / pathology ….

For orientation: LOAEL means the lowest dose or exposure tested at which an adverse effect was seen. By NOAEL is commonly meant the highest tested level that showed no adverse finding. Take `Cc1ccc(-c2cc(C(F)(F)F)nn2-c2ccc(S(N)(=O)=O)cc2)cc1` [Celecoxib]: in the series on rat [1], the LEL is 80 mg/kg/day, the lowest observed adverse effect level (LOAEL) is above 160 mg/kg/day, the NEL stood at 40 mg/kg/day and the NOAEL was at least 160 mg/kg/day.
Turning to `OC(c1ccc(Cl)cc1)(c1ccc(Cl)cc1)C(Cl)(Cl)Cl` [Dicofol], the LEL is 11.2 mg/kg/day in the series on rat [2] (group: offspring, developmental / offspring survival late / [other] / [other] + developmental / offspring survival late / viability index / viability index); 1.9 mg/kg/day in the series on rat [2] (setting [16]); 23.2 mg/kg/day in the series with rat [2] (setting [17]); 3.3 mg/kg/day in the series with dog [3]; 18.2 mg/kg/day in the series with mouse [4]; 2.23 mg/kg/day with rat [5] (setting [18]). Besides, the LEL worked out at 0.64 mg/kg/day in the series on rat [6] (setting [19]), 35 mg/kg/day in the series with mouse [7] and 0.12 mg/kg/day with dog [8] (setting [22]). The NEL was determined as 2.2 mg/kg/day in the series with rat [2] (group: offspring, developmental / offspring survival late / [other] / [other] + developmental / offspring survival late / viability index / viability index + …); 0.4 mg/kg/day with rat [2] (setting [16]); 11.2 mg/kg/day in the series with rat [2] (setting [17]); 0.29 mg/kg/day in the series with dog [3]; 1.6 mg/kg/day in the series with mouse [4]; 0.22 mg/kg/day with rat [5] (setting [18]). Further, the NEL is 0.07 mg/kg/day with rat [6] (setting [20]), 17 mg/kg/day in the series with mouse [7] and below 0.12 mg/kg/day with dog [8] (setting [22]). In addition, the LOAEL was above 23.2 mg/kg/day with rat [2] (setting [15]); 1.9 mg/kg/day with rat [2] (setting [16]); above 23.2 mg/kg/day in the series on rat [2] (setting [17]); 3.3 mg/kg/day in the series on dog [3]; 18.2 mg/kg/day in the series on mouse [4]; 2.23 mg/kg/day in the series on rat [5] (systemic / pathology microscopic / liver / hypertrophy + systemic / pathology microscopic / liver / vacuolization). Besides, the LOAEL with rat [6] (setting [19]) was found to be 0.64 mg/kg/day; with mouse [7], 35 mg/kg/day; in the series with dog [8] (setting [21]) it was 5.42 mg/kg/day. Further, the NOAEL was at least 23.2 mg/kg/day in the series with rat [2] (setting [15]); 0.4 mg/kg/day in the series on rat [2] (setting [16]); at least 23.2 mg/kg/day in the series on rat [2] (setting [17]); 0.29 mg/kg/day in the series on dog [3]; 1.6 mg/kg/day in the series with mouse [4]; 0.22 mg/kg/day in the series on rat [5] (setting [18]). Further, the NOAEL worked out at 0.07 mg/kg/day in the series with rat [6] (setting [20]), 17 mg/kg/day with mouse [7] and 0.85 mg/kg/day in the series on dog [8] (setting [21]).
For the compound `Cn1cc[nH]c1=S` [Methimazole], in the series with rat [9], the LEL stood at 20 mg/kg/day, the LOAEL was above 20 mg/kg/day, the NEL was below 20 mg/kg/day and the NOAEL was at least 20 mg/kg/day. Besides, in the series on rat [10], the LEL turned out to be 7 mg/kg/day, the LOAEL was above 7 mg/kg/day, the NEL was below 7 mg/kg/day and the NOAEL is at least 7 mg/kg/day. Moreover, in the series on rat [11], the LEL amounted to 1.5 mg/kg/day, the LOAEL was above 15 mg/kg/day, the NEL is below 1.5 mg/kg/day and the NOAEL was at least 15 mg/kg/day.
For `CSc1nc(NC(C)C)nc(NC(C)C)n1` [Prometryn], the LEL with rat [12] is 60.9 mg/kg/day; with rat [13] (setting [23]), 47.8 mg/kg/day; in the series on rat [13] (setting [24]), 47.8 mg/kg/day; with rabbit (reproductive / reproductive performance / resorptions / resorptions + systemic / in life observation / food consumption / food consumption…), 72 mg/kg/day; in the series on dog [14] (systemic / pathology microscopic / liver / cellular alteration + systemic / pathology microscopic / liver / depletion glycogen + systemic / …), 3.75 mg/kg/day. The lowest-observed-adverse-effect level (LOAEL) in the series with rat [12] was determined as 60.9 mg/kg/day; in the series with rat [13] (setting [23]), 47.8 mg/kg/day; in the series with rat [13] (setting [24]), 47.8 mg/kg/day; in the series on rabbit (setting [25]) it was 72 mg/kg/day; in the series with dog [14] (setting [26]) it was 37.5 mg/kg/day. For the same compound, the NEL with rat [12] was found to be 29.4 mg/kg/day; in the series on rat [13] (setting [23]), 0.6 mg/kg/day; with rat [13] (setting [24]) it was 0.6 mg/kg/day; with rabbit (setting [25]), 12 mg/kg/day; with dog [14] (setting [26]), 0.375 mg/kg/day. In addition, the NOAEL in the series with rat [12] stood at 29.4 mg/kg/day; in the series on rat [13] (setting [23]), 0.6 mg/kg/day; with rat [13] (setting [24]), 0.6 mg/kg/day; with rabbit (setting [25]), 12 mg/kg/day; with dog [14] (setting [26]) it was 3.75 mg/kg/day.

For the origin of these results see EPA's ToxRefDB 2.
